Values joined by “and” are separate entries in the source; they are usually repeats but may differ in a detail not shown here. Equal entries are not always repeated.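 Values below derive from 48-hour exposures of cells grown in 96-well plates, with endpoints linearly interpolated between the two concentrations bracketing the appropriate inhibition level. At the GI50, growth is halved. TGI: concentration producing complete growth inhibition.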
Key:
Experiment in all cases: NCI anticancer screen, dose series, 48 h
XF 498 CNS = system: XF 498 CNS
HOP-18 NSCLC = system: HOP-18 NSCLC
M19-MEL melanoma = system: M19-MEL melanoma
LXFL 529 NSCLC = system: LXFL 529 NSCLC
DLD-1 colon = system: DLD-1 colon
MDA-MB-435 = system: MDA-MB-435
SNB-78 CNS = system: SNB-78 CNS
MDA-N = system: MDA-N
RXF-631 renal = system: RXF-631 renal

Row | Structure (SMILES) | TGI (XF 498 CNS) [µM] | TGI (HOP-18 NSCLC) [µM] | TGI (M19-MEL melanoma) [µM] | TGI (LXFL 529 NSCLC) | TGI (DLD-1 colon) | GI50 (MDA-MB-435) [nM] | TGI (MDA-MB-435) [µM] | TGI (SNB-78 CNS) [µM] | further results
1 | CCOC1=C2N=C(Cc3ccccc3F)N=C2C(=O)c2ccccc21 | > 100 | > 100 | > 100 | > 100 µM | > 100 µM | – | – | – | –
2 | CC(=O)c1c(C(F)(F)F)n([O-])c2ccc(C)cc2[n+]1=O | – | – | – | – | – | 6990 | 35.9 | – | –
3 | N#CN1CC[C@H](C(=O)Nc2ncc(-c3ccncc3)s2)C1 | – | – | – | – | – | < 14.8 | 5.52 | – | –
4 | COCCOCOc1ccc(OCOCCOC)c2c1C(=O)c1ccccc1C2=O | > 100 | > 100 | 39 | – | > 100 µM | – | – | > 100 | –
5 | Cc1ccc(C2=Nc3ccccc3SC(c3cccc([N+](=O)[O-])c3)C2)cc1 (stereo not drawn) | – | – | – | – | – | – | 79.2 | – | TGI (MDA-N): > 100 µM
6 | N#Cc1ccc(N=Cc2c([O-])ccc3ccccc23)cc1.[C-]#[O+].[C-]#[O+].[Ir] | 12 | 8.51 | – | 4.32 µM | 4.09 µM | – | – | – | GI50 (XF 498 CNS): 2360 nM; GI50 (HOP-18 NSCLC): 2740 nM; GI50 (LXFL 529 NSCLC): 1840 nM; GI50 (DLD-1 colon): 1960 nM
7 | CC1(C)C2CCC13CS(=O)(=O)N1O[C@]13C(=O)O2 (stereo partly drawn) | – | > 100 | > 100 | > 100 µM | > 100 µM | – | – | > 100 | TGI (RXF-631 renal): > 100 µM
8 | COc1ccc2cc(-c3c(-c4ccncc4)nc(-c4ccc(S(C)=O)cc4)n3C)ccc2c1 (stereo not drawn) | – | – | – | – | – | 14600 | > 25 | – | –
9 | COc1ccc(-c2cc(=O)c3c(OC)c(OC)c(OC)c(OC)c3o2)cc1 | – | – | – | – | – | – | > 100 | – | TGI (MDA-N): > 100 µM
10 | O=C(Nc1cccc(Nc2ncc(Br)c(NCCc3cnc[nH]3)n2)c1)N1CCCC1 | – | – | – | – | – | 2620 | 18.5 | – | –
11 | CN(C)CCC(/C=C/c1ccccc1)=N\Nc1ccc(Cl)cc1Cl | – | 21.9 | 29 | 22.8 µM | 27.9 µM | – | – | 26.9 | –
12 | C[C@@H]1O[C@@H](O[C@H]2CC[C@@]3(C)[C@H](CCC4[C@@H]3C(O)C[C@]3(C)[C@@H](c5ccc(=O)oc5)CC[C@]43O)C2)[C@H](O)[C@H](O)[C@H]1O (stereo partly drawn) | – | – | – | – | – | 6.33 | 0.0131 | – | –
13 | COc1cc(-c2cc(-c3cc([N+](=O)[O-])c(/C=N/NC(=O)c4ccncc4)o3)ccc2OC)ccc1C | > 100 | – | > 100 | > 100 µM | > 100 µM | – | – | – | TGI (RXF-631 renal): > 100 µM
14 | O=C(O)COc1c(Cl)cc(Cl)c2cccnc12 | – | – | – | – | – | – | > 100 | – | TGI (MDA-N): > 100 µM
15 | Cc1cc2c(c(C(=O)O)c1C)-c1cccc(F)c1C2=O | > 100 | – | > 100 | > 100 µM | > 100 µM | – | – | > 100 | TGI (RXF-631 renal): > 100 µM
16 | COC(=O)C(C)(C)N=CN(C)C | > 100 | > 100 | > 100 | > 100 µM | > 100 µM | – | – | > 100 | TGI (RXF-631 renal): > 100 µM
17 | c1ccc2c3c([nH]c2c1)C1CCCN1CC3 (stereo not drawn) | – | – | – | – | – | – | > 10 | – | TGI (MDA-N): > 10 µM
18 | COc1ccc(C(Cl)=C(c2ccc(OCCN(C)C)cc2)c2ccc(OCCN(C)C)cc2)cc1 | 2.81 | – | – | – | 11.3 µM | – | – | 3.94 | TGI (RXF-631 renal): 0.966 µM

Row | Structure (SMILES) | TGI (XF 498 CNS) [µM] | TGI (HOP-18 NSCLC) [µM] | TGI (M19-MEL melanoma) [µM] | TGI (LXFL 529 NSCLC) | TGI (DLD-1 colon) | GI50 (MDA-MB-435) [nM] | TGI (MDA-MB-435) [µM] | TGI (SNB-78 CNS) [µM] | further results
19 | COc1ccc2c(c1OC)C(=O)OC2C1c2c(c([N+](=O)[O-])c3c(c2OC)OCO3)CCN1C (stereo not drawn) | – | – | – | – | – | > 100000 | > 100 | – | –
20 | Cc1cccc(NC(=O)c2sc3nc4c(cc3c2N)CN(Cc2ccccc2)CC4)c1C | – | – | – | – | – | 65 | 0.181 | – | –
21 | COc1ccc(OC)c(Cn2cc3c(c2)-c2oncc2CC3)c1 | – | – | – | – | – | 316 | 1.42 | – | –
22 | CSC(=S)N/N=C(\C)c1cccc(C)n1 | – | – | – | – | – | – | > 35.7 | – | TGI (MDA-N): > 90 µM
23 | CCOc1nc(N)nc(C)c1N=Nc1ccc(Cl)cc1 | – | – | – | – | – | – | > 100 | – | –
24 | C/C=C(\C)c1cc(O)c(C)c2c1Oc1cc(O)c(Cl)c(C)c1C(=O)O2 | – | – | 81.8 | 60 µM | 33.9 µM | – | – | 82.6 | –
25 | Cc1cc(N(CCC#N)CCC#N)ccc1/C=C1N=C(/C=C\c2ccccc2)N(c2ccc(Cl)cc2)C\1=O | > 100 | > 100 | > 82.7 | – | > 100 µM | – | – | > 100 | TGI (MDA-N): > 100 µM
26 | COC(=O)c1nc(-c2ccccc2)oc1S(=O)(=O)n1nc(C)cc1N | – | – | – | – | – | 11400 | 25.3 | – | –
27 | CCCCCn1sc(=O)n(Cc2ccc(CNC(=O)OCc3ccc4cccc(O)c4n3)cc2)c1=O | – | – | – | – | – | 1170 | 2.5 | – | –
28 | C/C1=C\[C@@H](O)C(=O)/C=C/C=C\c2csc(n2)[C@@H](C)NC(=O)C[C@@]2(CC1)S(=O)SC(=O)[C@]2(C)O (stereo partly drawn) | – | 0.178 | – | 0.0333 µM and 0.0187 µM | 0.213 µM and 0.0233 µM | – | 0.0562 | 0.0589 | –
29 | O=P1(Oc2ccccc2)C(c2ccccc2)C(c2ccccc2)=NN1c1ccccc1 (stereo not drawn) | > 100 | > 100 | 54.9 | 45.7 µM | 34.3 µM | – | – | > 100 | TGI (RXF-631 renal): > 100 µM
30 | Cc1ccc(S(=O)OC2C3CC4CC(C3)CC2C4)cc1 (stereo not drawn) | > 100 | > 100 | > 100 | > 100 µM | > 100 µM | – | – | > 100 | –
31 | Cc1cc(N(CCC#N)CCC#N)ccc1/C=C1/N=C(c2ccccc2)N(N)C1=O | > 100 | – | > 100 | > 100 µM | > 100 µM | – | – | – | –
32 | COc1cc2nc(NCCCCCNC(=O)c3ccco3)nc(N)c2cc1OC | – | > 100 | 61.4 | – | – | – | – | 89.5 | TGI (RXF-631 renal): 74.1 µM
33 | CCC1(O)C(=O)OCc2c1cc1n(c2=O)Cc2cc3cc(N)ccc3nc2-1 (stereo not drawn) | – | – | – | – | – | – | – | – | TGI (MDA-N): 0.285 µM
34 | [N-]=[N+]=C1C(=O)C2CC3CC(C2)CC1C3 | > 100 | > 100 | > 100 | > 100 µM | > 100 µM | – | – | > 100 | –
35 | CN1COc2c(n(C)c(=O)[nH]c2=O)C1 | > 100 | > 100 | > 100 | > 100 µM | > 100 µM | – | – | > 100 | –
36 | CCN1C(=O)N(CC)C2C1NN=c1s/c(=C\c3ccccc3Br)c(=O)n12 (stereo not drawn) | – | – | – | – | – | < 13.7 | 0.0416 | – | –
